Assay results: PMC6646883 (Biomacromolecules, 2019)
Where no end group is shown, it is not given here.

Assay type: physicochemical
Conditions: methylene blue assay, dilute solution 0.1 mg/mL in 1x PBS pH 7.4 with Zn(OAc)2, Cys trigger, rt, absorbance at 750 nm, quadruplicate, t1/2=ln(2)/slope

Substance | H2S release half-life (pseudo-first-order)
IAVEEEE [APA 5] | 13 min
IAVEEEE [APA 3] | 19 min
IAVEEEE [APA 1] | 31 min
